Measurements reported in patent US20110257135A1, “TOPICAL PESTICIDE FORMULATION” (priority 2008, published 2011).

Assays:
Format in all cases: in vivo
[1] = test system: mice; assay: Initial topical test of 4% w/v formulation on mice; settings: 4% w/v cholecalciferol in absolute alcohol, 0.5 ml per animal
Text: (§1) A formulation of the present invention was initially prepared and tested on mice and laboratory rats to determine the viability of the invention. The formulation contained cholecalciferol in an amount of 4% w/v and absolute alcohol. […] These studies are described in the following examples.

[2] = test system: Hedgehog; assay: Dermal application of cholecalciferol, Example 1 study (Table 1); settings: 1.5 ml of 20% cholecalciferol in absolute alcohol, topical; animal 515 g
Experimental: (§2) Two formulations of the invention were prepared both containing cholecalciferol in solution with absolute alcohol. One of the formulations contained cholecalciferol in an amount of 20% w/v. The other formulation contained cholecalciferol in an amount of 40% w/v. The formulation was topically applied to several animal pest species in varying amounts and the animals were studied.

[3] = test system: Rabbit; assay: as above; settings: 2.0 ml of 20% cholecalciferol in absolute alcohol, topical; animal 2.6 kg
Experimental: as §2

[4] = test system: Weasel; assay: as above; settings: 1.5 ml of 40% cholecalciferol in absolute alcohol, topical
Experimental: as §2

[5] = test system: Ferret; assay: as above; settings: 2.0 ml of 40% cholecalciferol in absolute alcohol, topical; animal 902 g
Experimental: as §2

[6] = test system: Bush Rat (Rattus rattus); assay: as above; settings: 1.0 ml of 20% cholecalciferol in absolute alcohol, topical; animal weight unknown
Experimental: as §2

[7] = test system: Lab Rat (Rattus norvegicus); assay: as above; settings: 0.5 ml of 20% cholecalciferol in absolute alcohol, topical; animal weight unknown
Experimental: as §2

[8] = test system: laboratory rats; assay: Initial topical test of 4% w/v formulation on laboratory rats; settings: 4% w/v cholecalciferol in absolute alcohol, 0.5 ml per animal
Text: as §1

[9] = test system: stoats; assay: Dermal application of test solution to wild-caught stoats (Example 2 study)
Experimental: A test solution of approximately 100 ml was formulated, containing Vitamin D3 (cholecalciferol) resin in the solvent absolute alcohol. The concentration of cholecalciferol in the solution was about 40% w/v. The formulation was designed to kill stoats.
Wild-caught adult stoats (three male and three female) were housed in outdoor cages (60×150×90 cm). Each stoat was provided with a nest box (40×33×15 cm) containing shredded paper as nesting material. Stoats were fed a rotation of, dead day-old chicks, chicken pet mince and mutton/beef pet mince in the afternoon and had free access to water.
They were acclimatised to captivity for at least 5 months prior to being used in the trial. The stoats were lightly anaesthetised with isoflurane, weighed and then had 1.5 ml of the test solution applied to their skin and fur, using a syringe to deliver a line of solution along the spine from the nape to the base of the tail. This was a ‘high exposure’ simulation of the manner in which the delivery system would apply a toxic solution to the fur and skin of stoats.
After application of the solution, the stoats were placed into large nest boxes which were lined with paper but without bedding material, to facilitate observation. Dark Perspex lids were kept on the nest boxes to minimise disturbance of stoats by human observers. The stoats were monitored constantly through recovery from anaesthesia and then for the next three hours to record their responses to the solution on their coats and document any behaviour associated with its presence e.g. grooming, rubbing or rolling. After the three hour observation period in the boxes, stoats were returned to their outdoor cages with nesting material, food and water freely available. […] After this, observations of each stoat were recorded once daily, noting any signs of illness that are associated with cholecalciferol poisoning, e.g. stop feeding, significant body weight loss. Where any signs of illness occurred, the monitoring was to be increased to twice daily (morning and afternoon).
Feed intakes of the stoats were visually estimated for at least three days prior to dosing, i.e. ration all eaten, half eaten, quarter eaten, none eaten. Food intake was similarly noted daily after dosing through until death or 21 days (whichever occurred first). Stoats were weighed at least once a week after dosing, through to death or 21 days (which ever occurred first). Any stoats that died during the 21 day observation were to be retained for necropsy. Typical signs of poisoning (inappetance combined with significant body weight loss) were used as an alternative endpoint for the trial, with a weight loss greater than 25% of bodyweight at dosing triggering euthanasia. Stoats that survived the 21 day observation were to be euthanized.

[10] = Stoat Female 407, 193 g at dosing, 2331 mg/kg dermal
[11] = Stoat Male 391, 235 g at dosing, 1914 mg/kg dermal
[12] = Stoat Male 415, 382 g at dosing, 1178 mg/kg dermal
[13] = Stoat Male 419, 359 g at dosing, 1253 mg/kg dermal

C=C1CC[C@H](O)C/C1=C/C=C1\CCC[C@]2(C)[C@@H]([C@H](C)CCCC(C)C)CC[C@@H]12 [cholecalciferol]
death of the animal [1]: death of the animal occurred within a reasonably short time frame | Observations: time to death [2]: within 25 hours | Observations: time to death [3]: within 2 days | Observations: time to death ([4]; animal 116 g): within 43 hours | Observations: time to death ([4]; animal 139 g): within 36 hours | Observations: time to death [5]: within 48 hours | Observations: time to death [6]: within 40 hours | Observations: time to death [7]: within 72 hours | death of the animal [8]: death of the animal occurred within a reasonably short time frame | % weight loss at death ([9]; Stoat Female 407, 2331 mg/kg dermal): 46% | Fate (days after dosing) ([9]; Stoat Female 407, 193 g at dosing, 1.5 ml test solution, estimated exposure 2331 mg/kg): died (12) | Weight at day 7 [9, 10]: 151 g | Weight at day 12 [9, 10]: 112 g | % weight loss at death ([9]; Stoat Female 413, 2486 mg/kg dermal): 44% | Fate (days after dosing) ([9]; Stoat Female 413, 181 g at dosing, 1.5 ml test solution, estimated exposure 2486 mg/kg): died (11) | Weight at day 7 ([9]; Stoat Female 413, 181 g at dosing, 2486 mg/kg dermal): 120 g | % weight loss at death ([9]; Stoat Female 414, 2205 mg/kg dermal): 13% | Fate (days after dosing) ([9]; Stoat Female 414, 204 g at dosing, 1.5 ml test solution, estimated exposure 2205 mg/kg): died (4) | % weight loss at death ([9]; Stoat Male 391, 1914 mg/kg dermal): 30% | Fate (days after dosing) ([9]; Stoat Male 391, 235 g at dosing, 1.5 ml test solution, estimated exposure 1914 mg/kg): euthanized (12) | Weight at day 7 [9, 11]: 188 g | Weight at day 12 [9, 11]: 166 g | % weight loss at death ([9]; Stoat Male 415, 1178 mg/kg dermal): 36% | Weight at day 7 [9, 12]: 296 g | Weight at day 12 [9, 12]: 254 g | Fate (days after dosing) ([9]; Stoat Male 415, 382 g at dosing, 1.5 ml test solution (nominal 40%, assayed 30%, absolute alcohol), estimated exposure 1178 mg/kg): euthanized (12) | % weight loss at death ([9]; Stoat Male 419, 1253 mg/kg dermal): 37% | Weight at day 7 [9, 13]: 277 g | Weight at day 12 [9, 13]: 253 g | Fate (days after dosing) ([9]; Stoat Male 419, 359 g at dosing, 1.5 ml test solution, estimated exposure 1253 mg/kg): euthanized (12) | inappetance (stop feed effect) ([9]; from the first night after dosing, generally eating less than half of rations each day): All six stoats showed inappetance | effective lethal dermal exposure (in excess of or equal to a dermal LD99 value) ([9]; lower end of exposure range in stoats, test solution in absolute alcohol): 1178 mg/kg | cages with vomitus present ([9]; morning after return to outdoor cages, 1.5 ml test solution): three of the 6 | mortality (number of stoats) ([9]; six stoats, over 12 days after dosing, 1.5 ml test solution): three | necropsy findings ([9]; stoats that died): no gross evidence of calcification/mineralisation or lung damage | time of euthanasia after dosing (weight loss endpoint), male stoats ([9]; three male stoats, 1.5 ml test solution, 1178-1914 mg/kg): 12 days
